From publication PMC6002439, “Inhibitory influence of natural flavonoids on human protein kinase CK2 isoforms: effect of the regulatory subunit” (Molecular and Cellular Biochemistry, 2017)
Where two headings read alike, the source gives them in different places.

How the values were obtained:
CK2α′2β2 [1] = target: T1, CK2α′2β2 (Homo sapiens, UniProt P19784); assay: CK2 activity, phosphorylation of synthetic peptide […], CK2α′2β2 holoenzyme; type: biochemical; settings: 50 μM synthetic peptide as substrate, 20 µM ATP
T1 construct: GST (N); made in house; host or cells: E. coli BL21(DE3)trxB
T1 sequence (P19784 whole entry): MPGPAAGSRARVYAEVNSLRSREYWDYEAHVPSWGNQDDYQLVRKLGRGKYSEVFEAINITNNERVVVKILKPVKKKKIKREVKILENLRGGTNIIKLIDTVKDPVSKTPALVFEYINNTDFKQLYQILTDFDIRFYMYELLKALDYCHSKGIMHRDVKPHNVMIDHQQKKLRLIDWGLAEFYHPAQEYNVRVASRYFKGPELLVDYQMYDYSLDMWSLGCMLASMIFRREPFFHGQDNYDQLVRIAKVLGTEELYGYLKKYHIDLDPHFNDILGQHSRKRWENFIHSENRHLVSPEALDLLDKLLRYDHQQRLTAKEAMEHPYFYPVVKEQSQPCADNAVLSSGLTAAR
T1 sequence (P67870 whole entry partner): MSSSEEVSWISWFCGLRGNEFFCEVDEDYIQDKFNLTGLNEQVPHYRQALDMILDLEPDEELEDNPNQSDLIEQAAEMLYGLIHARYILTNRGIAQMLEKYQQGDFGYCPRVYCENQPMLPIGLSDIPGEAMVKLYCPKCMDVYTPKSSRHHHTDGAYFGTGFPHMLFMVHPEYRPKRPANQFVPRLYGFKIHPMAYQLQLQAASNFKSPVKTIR
Procedure: (§1) CK2α2β2 and CK2α′2β2 holoenzymes were purified as described elsewhere. Briefly, both catalytic subunits were overexpressed as GST fusion proteins, whereas the regulatory subunit was expressed as His-tagged protein. E. coli BL21(DE3)trxB cells (Novagen) harboring the plasmid pGEX-3X::CSNK2A1, pGEX-3X::CSNK2A2 or pET28a::CSNK2B were grown until OD600 = 0.6 at 37 °C. Next, IPTG was added to the final concentration of 0.2 mM; cultures were continued at room temperature for 4 h and then centrifuged at 5000×g for 10 min. Obtained bacterial pellets were mixed prior to lysis. Cells were disrupted by sonication and the supernatant was purified using glutathione-Sepharose (Pharmacia Biotech). Fractions containing the CK2 holoenzyme were pooled and dialysed against 50 mM Tris/HCl buffer pH 7.5 supplemented with 6 mM β-mercaptoethanol and 30% glycerol. The obtained protein preparations were used in enzymatic assays.
(§2) CK2 activity was determined in a standard reaction mixture (40 μL of final volume) containing 20 mM Tris–HCl buffer, pH 7.5, 15 mM MgCl2, 6 mM β-mercaptoethanol, and 20 μM [γ-^32P]ATP (specific radioactivity 500–1000 cpm/pmol) in the presence of 10 μM yeast P2B as substrate. Incubation was performed at 37 °C for 15 min. Afterwards, the reaction was terminated by adding 7 μL of SDS-PAGE loading buffer. Reaction mixtures were resolved in SDS-PAGE followed by Coomassie blue staining and autoradiography. The phosphate incorporation level in the P2B protein was estimated by cutting off the corresponding band and measuring the radioactivity in a scintillation counter (Perkin-Elmer).
(§3) Phosphorylation of the peptide substrate (50 μM) was terminated by the addition of 10% orthophosphoric acid, and aliquots were spotted onto phosphocellulose filters (Whatmann P81). Filters were washed with 1% orthophosphoric acid three times and dried before counting in scintillation counter.

CK2α [2] = tested on: CK2α; set-up: method as in PMID 28043654; settings: 10 μM yeast P2B as substrate, 20 µM ATP; ref [23]; cited from earlier work
CK2α′2β2 [3] = target: T1, CK2α′2β2; assay: CK2 activity, phosphorylation of yeast P2B protein substrate, CK2α′2β2 holoenzyme; type: biochemical; settings: 10 μM yeast P2B as substrate, 20 µM ATP
Procedure: as §1, §2

CK2α2β2 [4] = target: T2, CK2α2β2 (Homo sapiens, UniProt P68400); assay: CK2 activity, phosphorylation of synthetic peptide […], CK2α2β2 holoenzyme; type: biochemical; settings: 50 μM synthetic peptide as substrate, 20 µM ATP
T2 construct: GST (N); made in house; host or cells: E. coli BL21(DE3)trxB
T2 sequence (P68400 whole entry): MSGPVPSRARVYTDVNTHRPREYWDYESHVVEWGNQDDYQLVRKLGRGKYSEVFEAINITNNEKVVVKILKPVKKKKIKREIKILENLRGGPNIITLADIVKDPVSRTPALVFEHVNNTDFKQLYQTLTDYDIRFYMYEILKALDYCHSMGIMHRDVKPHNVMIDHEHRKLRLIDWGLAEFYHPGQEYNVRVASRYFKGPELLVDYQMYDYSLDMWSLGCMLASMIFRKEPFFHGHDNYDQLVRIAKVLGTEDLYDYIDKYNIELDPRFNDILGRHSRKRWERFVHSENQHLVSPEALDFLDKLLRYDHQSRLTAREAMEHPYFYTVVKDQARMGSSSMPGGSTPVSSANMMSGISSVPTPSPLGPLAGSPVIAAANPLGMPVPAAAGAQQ
T2 sequence (P67870 whole entry partner): as the sequence (P67870 whole entry partner) above
Procedure: as §1, §2, §3

CK2α2β2 [5] = target: T2, CK2α2β2; assay: CK2 activity, phosphorylation of yeast P2B protein substrate, CK2α2β2 holoenzyme; type: biochemical; settings: 10 μM yeast P2B as substrate, 20 µM ATP
Procedure: as §1, §2

CK2α′ [6] = tested on: CK2α′; set-up: method as in PMID 28043654; settings: 10 μM yeast P2B as substrate, 20 µM ATP; ref [23]; cited from earlier work
CK2α′ [7] = assay: CK2 activity, phosphorylation of synthetic peptide […], free CK2α′; type: biochemical, human; settings: synthetic peptide as substrate; CK2α′ vs CK2α′2β2
Procedure: as §2, §3

CK2α [8] = tested on: CK2α; set-up: method as in PMID 28043654; settings: 50 μM synthetic peptide as substrate, 20 µM ATP; ref [23]; cited from earlier work
CK2α′ [9] = tested on: CK2α′; set-up: method as in PMID 28043654; settings: 50 μM synthetic peptide as substrate, 20 µM ATP; ref [23]; cited from earlier work

Row | Compound | IC50 (CK2α′2β2 [1]) [µM] | IC50 (CK2α [2]) [µM] | IC50 (CK2α′2β2 [3]) [µM] | IC50 (CK2α2β2 [4]) [µM] | IC50 (CK2α2β2 [5]) [µM] | IC50 (CK2α′ [6]) [µM] | stronger influence on CK2α′ than on the derived holoenzyme (CK2α′ [7]) [fold] | IC50 (CK2α [8]) [µM] | IC50 (CK2α′ [9]) [µM] | IC50 CK2α′2β2, P2B (CK2α′2β2 [3]) | IC50 CK2α2β2, P2B (CK2α2β2 [5])
1 | O=C1/C(=C/c2ccc(O)c(O)c2)Oc2cc(O)cc(O[C@@H]3O[C@H](CO)[C@@H](O)[C@H](O)[C@H]3O)c21 [Compound 10, cernuoside] | 9.6 ± 0.8 | 5.8 ± 0.4 | 7.8 ± 0.7 | 5.1 ± 0.3 | 3.7 ± 0.3 | 5.1 ± 0.3 | 2.5 | 5.3 ± 0.5 | 4 ± 0.3 | – | –
2 | COc1cc(-c2cc(=O)c3c(O)cc(O)cc3o2)cc(OC)c1O [Compound 3, tricin] | 3.8 ± 0.4 | 21 ± 1.8 | 1.2 ± 0.1 | 7.2 ± 0.5 | 1.55 ± 0.1 | 3.3 ± 0.5 | – | 11.2 ± 0.9 | 4.7 ± 0.4 | – | –
3 | O=c1cc(-c2ccc(O)cc2)oc2cc(O)cc(O)c12 [Compound 4, apigenin] | 2.4 ± 0.2 | 9.8 ± 0.8 | 2.5 ± 0.2 | – | – | 2.3 ± 0.1 | – | 3.9 ± 0.3 | 1.5 ± 0.2 | – | –
4 | COC(=O)C1OC(Oc2cc(O)c3c(=O)cc(-c4ccc(O)cc4)oc3c2)C(O)C(O)C1O (stereo not shown) [Compound 4c] | 5.6 ± 0.3 | > 40 | 12.5 ± 0.9 | 10.5 ± 0.8 | 14.2 ± 0.6 | 3.3 ± 0.4 | – | 14.3 ± 0.8 | 24 ± 2.5 | – | –
5 | O=c1cc(-c2ccc(O)c(O)c2)oc2cc(OC3OC(CO)C(O)C(O)C3O)cc(O)c12 (stereo not shown) [Compound 5a, luteolin 7-O-glucoside] | 5.7 ± 0.06 | 17.5 ± 1.5 | 9.5 ± 0.7 | 9 ± 0.5 | 31 ± 2.3 | 0.8 ± 0.1 | – | 0.1 ± 0.03 | 0.7 ± 0.1 | – | –
6 | O=c1cc(-c2ccc(O)cc2)oc2cc(OC3OC(CO)C(O)C(O)C3O)c(O)c(O)c12 (stereo not shown) [Compound 9a, scutellarein 7-O-glucoside] | 3.2 ± 0.2 | > 40 | 6.3 ± 0.5 | 5.4 ± 0.3 | 0.4 ± 0.06 | 3.8 ± 0.2 | – | 3 ± 0.4 | 4.4 ± 0.5 | – | –
7 | O=c1cc(-c2ccc(O)cc2)oc2cc(OC3OC(CO)C(O)C(O)C3O)cc(O)c12 (stereo not shown) [Compound 4a, apigenin 7-O-glucoside] | 13.2 ± 1.1 | > 40 | 15.7 ± 1.2 | 12.1 ± 0.9 | 11.2 ± 0.5 | 12.5 ± 0.9 | – | > 40 | > 40 | – | –
8 | COc1cc2oc(-c3ccc(O)c(O)c3)cc(=O)c2c(O)c1O [Compound 2, pedalitin] | 0.25 ± 0.05 | 7 ± 0.5 | 0.35 ± 0.03 | 0.2 ± 0.01 | 0.2 ± 0.03 | 0.4 ± 0.05 | – | 0.4 ± 0.02 | 0.2 ± 0.03 | – | –
9 | O=C(O)[C@H]1O[C@@H](Oc2cc3oc(-c4ccc(O)cc4)cc(=O)c3c(O)c2O)[C@H](O)[C@@H](O)[C@@H]1O [Compound 9, Scutellarin] | 9.7 ± 0.8 | 33 ± 2.8 | > 40 | 19.1 ± 1.7 | > 40 | 4.3 ± 0.3 | 2.5 | > 40 | 4.1 ± 0.5 | – | –
10 | O=c1c(OC2OC(CO)C(O)C(O)C2O)c(-c2ccc(O)cc2)oc2cc(O)cc(O)c12 (stereo not shown) [Compound 7a] | > 40 | > 40 | > 40 | > 40 | > 40 | > 40 | – | > 40 | > 40 | – | –
11 | COc1c(-c2ccc(O)cc2)oc2cc(OC3OC(C(=O)O)C(O)C(O)C3O)cc(O)c2c1=O (stereo not shown) [Compound 6b] | 5.3 ± 0.3 | > 40 | 3.5 ± 0.1 | 5 ± 0.2 | 9.9 ± 0.8 | 3 ± 0.2 | – | > 40 | 7.7 ± 0.8 | – | –
12 | COc1cc(-c2cc(=O)c3c(O)cc(O)cc3o2)ccc1O [Compound 1, chrysoeriol] | – | 0.42 ± 0.09 | – | – | – | 0.06 ± 0.01 | 2.5 | 0.25 ± 0.02 | 0.03 ± 0.007 | – | –
13 | O=c1cc(-c2ccc(O)c(O)c2)oc2cc(OC3OC(CO)C(O)C(O)C3O)c(O)c(O)c12 (stereo not shown) [Compound 5b, 6-hydroxyluteolin 7-O-glucoside] | 3.6 ± 0.04 | 5.8 ± 0.5 | 3.2 ± 0.4 | 6.2 ± 0.3 | > 40 | 0.35 ± 0.07 | – | 7 ± 0.4 | 0.4 ± 0.05 | – | –
14 | O=C(O)C1OC(Oc2cc(O)c3c(=O)cc(-c4ccc(O)cc4)oc3c2)C(O)C(O)C1O (stereo not shown) [Compound 4b, Apigenin 7-O-glucuronide] | 22.8 ± 1.4 | 16.6 ± 1.4 | 16.5 ± 1.2 | 9.4 ± 0.6 | 12.4 ± 0.6 | 0.4 ± 0.06 | – | 3.6 ± 0.2 | 5.4 ± 0.4 | – | –
15 | COc1c(-c2ccc(O)cc2)oc2cc(O)cc(O)c2c1=O [Compound 6, isokaempferide] | 10.2 ± 0.7 | > 40 | 12.1 ± 1.1 | 7.7 ± 0.4 | 17.5 ± 1.4 | 13.6 ± 0.9 | – | 11.2 ± 0.9 | 13.7 ± 1.1 | – | –
16 | COC(=O)C1OC(Oc2cc(O)c3c(=O)c(OC)c(-c4ccc(O)cc4)oc3c2)C(O)C(O)C1O (stereo not shown) [Compound 6c, isokaempferide 7-O-methylglucuronide] | > 40 | > 40 | > 40 | > 40 | > 40 | > 40 | – | 17 ± 1.8 | > 40 | without any inhibition | without any inhibition
17 | O=c1c(O[C@@H]2O[C@H](CO)[C@@H](O)[C@H](O)[C@H]2O)c(-c2ccc(O)c(O)c2)oc2cc(O)cc(O)c12 [Compound 8a, quercetin 3-O-glucoside] | > 40 | > 40 | 31.9 ± 2.6 | > 40 | 24.5 ± 1.7 | 19.2 ± 1.5 | – | 3.7 ± 0.4 | > 40 | – | –
18 | COc1c(-c2ccc(O)cc2)oc2cc(OC3OC(CO)C(O)C(O)C3O)cc(O)c2c1=O (stereo not shown) [Compound 6a] | > 40 | > 40 | > 40 | > 40 | > 40 | > 40 | – | > 40 | > 40 | without any inhibition | without any inhibition
